Data taken from ChEMBL document CHEMBL4339189, “Dissymmetric pyridyl-substituted 3,5-bis(arylidene)-4-piperidones as anti-hepatoma agents by inhibiting NF-κB pathway activation” (Eur J Med Chem, 2019).
Calls of active or inactive are those of the source. No cut-off for these calls is given here.

Experiments:
[1] = tested on: RAW264.7; assay: Antiinflammatory activity in mouse RAW264.7 cells assessed as inhibition of LPS-stimulated TNF-alpha production at 6.0 uM preincubated for 2 hrs followed by LPS stimulaton measured after 22 hrs by ELISA relative to control; format: functional
[2] = tested on: RAW264.7; assay: Antiinflammatory activity in mouse RAW264.7 cells assessed as inhibition of LPS-stimulated IL-6 production 6.0 uM preincubated for 2 hrs followed by LPS stimulaton measured after 22 hrs by ELISA relative to control; format: functional
[3] = tested on: RAW264.7; assay: Cytotoxicity against mouse RAW264.7 cells assessed as reduction in cell viability at 6.0 uM incubated for 24 hrs by MTT assay; format: cell-based; conditions: raw264.7, 24 h
[4] = tested on: QGY-7703; assay: Cytotoxicity against human QGY7703 cells assessed as reduction in cell viability incubated for 24 hrs by MTT assay; format: functional, cell-based; conditions: QGY-7703, 24 h
[5] = Cytotoxicity against human HHL5 cells assessed as reduction in cell viability incubated for 24 hrs by MTT assay; format: cell-based; conditions: HHL-5, 24 h
[6] = tested on: HepG2; assay: Cytotoxicity against human HepG2 cells assessed as reduction in cell viability incubated for 24 hrs by MTT assay; format: functional, cell-based; conditions: HepG2, 24 h
[7] = tested on: L02; assay: Cytotoxicity against human LO2 cells assessed as reduction in cell viability incubated for 24 hrs by MTT assay; format: cell-based; conditions: L02, 24 h
[8] = tested on: SMMC-7721; assay: Cytotoxicity against human SMMC7721 cells assessed as reduction in cell viability incubated for 24 hrs by MTT assay; format: functional, cell-based; conditions: SMMC-7721, 24 h

| SMILES | inhibition [1] | inhibition [2] | Activity [3] | IC50 [4] [µM] | IC50 [5] [µM] | IC50 [6] [µM] | IC50 [7] [µM] | IC50 [8] [µM] | inhibition at 6 µM [1] [%] | inhibition (INH) [2] [%] |
| --- | --- | --- | --- | --- | --- | --- | --- | --- | --- | --- |
| O=C1/C(=C/c2cccnc2)CN(S(=O)(=O)c2ccccc2)C/C1=C\c1ccccc1F | inactive | inactive | Non-Toxic | 4.8 | 14 | 8.21 | 15.3 | 19.1 |  |  |
| CN1C/C(=C\c2cccnc2)C(=O)/C(=C/c2cc([N+](=O)[O-])ccc2F)C1 | Active | Active | Non-Toxic | 11.1 | 14.2 | 6.63 | 15.7 | 6.17 |  |  |
| COc1cc(/C=C2\CN(C)C/C(=C\c3cccnc3)C2=O)cc(OC)c1 | Active | Active | Non-Toxic | 7.9 | > 20 | 6.91 | 18.4 | 17.9 |  |  |
| O=C1/C(=C/c2ccncc2)CN(S(=O)(=O)c2ccc(C(F)(F)F)cc2)C/C1=C\c1ccccc1C(F)(F)F |  |  | Non-Toxic | 4.68 | 11.7 | 3.24 | 13.8 | 3.84 |  |  |
| CN1C/C(=C\c2cccnc2)C(=O)/C(=C/c2ccccc2C(F)(F)F)C1 |  |  | Non-Toxic | 2.91 | 11.1 | 2.55 | 14.1 | 3.9 | < 30 | <30 |
| O=C1/C(=C/c2cccnc2)CNC/C1=C\c1ccccc1C(F)(F)F | Active | Active | Non-Toxic | 3.8 | 10.4 | 5.02 | 11.3 | 5.1 |  |  |
| O=C1/C(=C/c2ccncc2)CN(S(=O)(=O)c2ccc(Br)cc2)C/C1=C\c1ccccc1C(F)(F)F |  |  | Non-Toxic | 7.06 | 9.32 | 14.5 | 12.6 | 10.5 |  |  |
| Cc1ccc(S(=O)(=O)N2C/C(=C\c3cccnc3)C(=O)/C(=C/c3ccccc3C(F)(F)F)C2)cc1 | Active | Active | Non-Toxic | 6.17 | 11.1 | 2.93 | 12.3 | 6.7 |  |  |
| Cc1ccc(S(=O)(=O)N2C/C(=C\c3cccnc3)C(=O)/C(=C/c3ccccc3F)C2)cc1 | Active | Active | Non-Toxic | 9.7 | 15.3 | 4.2 | 14.9 | 10.3 |  |  |
| COc1cc(/C=C2\CN(C)C/C(=C\c3ccncc3)C2=O)cc(OC)c1OC | Active | Active | Non-Toxic | 5.9 | 12.3 | 9.8 | 16.4 | 9.13 |  |  |
| S=C(S)N1CCCC1 | Active | Active |  |  |  |  |  |  |  |  |
| COc1ccc(/C=C2\CN(C)C/C(=C\c3cccnc3)C2=O)c(OC)c1OC | Active | Active | Non-Toxic | 2.63 | 11.6 | 5.16 | 13.6 | 13.7 |  |  |
| O=C1/C(=C/c2cccnc2)CN(S(=O)(=O)c2ccc(Cl)cc2)C/C1=C\c1ccccc1F | inactive | inactive | Non-Toxic | 12.1 | > 20 | 12.4 | > 20 | 16.1 |  |  |
| CN1C/C(=C\c2ccncc2)C(=O)/C(=C/c2ccc(F)cc2Br)C1 | Active | Active | Non-Toxic | 6.9 | 11.6 | 9.2 | 12.4 | 23.8 |  |  |
| N#Cc1ccc(S(=O)(=O)N2C/C(=C\c3cccnc3)C(=O)/C(=C/c3ccccc3C(F)(F)F)C2)cc1 | Active | Active | Non-Toxic | 6.15 | 11.2 | 5.06 | 13.2 | 9.65 |  |  |
| COc1cc(/C=C2\CN(C)C/C(=C\c3cccnc3)C2=O)cc(OC)c1OC | Active | Active | Non-Toxic | 4.3 | 11.3 | 9.52 | 14.4 | 20.4 |  |  |
